The data set is described as follows: solubility in water at room temperature. Format: physicochemical.

Each structure is given as a SMILES string. Counter-ions that a name gives are not always drawn.

In general, solubility refers to the dissolved amount per volume that the medium holds. Turning to `CCc1c2c(nc3ccc(OC(=O)N4CCC(N5CCCCC5)CC4)cc13)-c1cc3c(c(=O)n1C2)COC(=O)[C@]3(O)CC` [form H, irinotecan hydrochloride], the solubility is over 20 mg/mL.

Source of the values: patent publication US8247426B2, “Crystalline irinotecan hydrochloride and methods for its preparation” (Antibioticos S.p.A., priority 2008, dated 2012).
